A short description of data set [1]: Carotenoid content of Lycopene Suspension-supplemented diets after 7 months storage. The data set is classed as physicochemical. Particulars: for Carotenoid content of diet: stored at −20 °C for 7 months. How it is done:
When the Lycopene Suspension (Henkel Corporation, La Grange, Ill.) was extracted by organic extraction methods, the major carotenoid was lycopene, but a number of other carotenoids were known to be present in tomatoes, α- and β-Carotene, phytofluene and phytoene were also present (FIGS. 6 & 7). The quantitative profile of carotenoids in the Lycopene Suspension was carried out using an HPLC system as described above, equipped with a photodiode array detector. The six major components can be seen in Table 7.
(Table 10). Note that all the major carotenoids plus the lycopene metabolite present in the Lycopene Suspension are present in the diets in the same relative proportions. However, the net loss of lycopene over 7 months was 66%, 38%, 40%, 44% and 60%, in treatment groups 1-5, respectively; in contrast, β-carotene concentrations declined by only 10% of original values over the same time period.

Data set [2] in a line: Carotenoid content of livers of rats fed supplemented diets.
Description: Breast, liver and prostate tissue contain lipids which interfere with the assay. Consequently, a saponification step was required prior to organic extraction. Tissue was homogenized in 20 ml methanol to which echinenone was added as internal standard. For breast tissue, which comprise of 85% adipocytes, 8.0 ml 50% NaOH and 4.0 ml 25% sodium ascorbate was added and the mixture was homogenized. For prostate and liver tissue, which contain less lipid, 4.0 ml and 50% NaOH. and 2.0 ml sodium ascorbate were added and the mixture was
homogenized. Saponification was carried out in 50 ml tubes saturated with N2 gas overnight in a temperature controlled shaker bath at 30° C. Following saponification, 10 ml hexane was add d to each tube and vortexed for 1 minute. The mixture was then centrifuged at 2000 rpm for 10 min at 4° C. and the hexane layer was decanted and saved. This hexane extraction procedure was repeated 5-7 times. The pooled hexane extract was then dried under N2 gas at 60° C., dissolved in injection solvent and analyzed by HPLC. Lung and colon tissue were processed in an identical manner with the exception that the saponification step was omitted.
[3] abbreviates: female rats, Diet 1, 2.5 mM/kg diet.
The mark [4] stands for this setting: female rats, Diet 2, 1.0 mM/kg diet.
Where [5] appears, read: female rats, Diet 3, 0.5 mM/kg diet.
[6] abbreviates: female rats, Diet 4, 0.25 mM/kg diet.
Where [7] appears, read: female rats, Diet 5, 0.10 mM/kg diet.
Where [8] appears, read: male rats, Diet 1, 2.5 mM/kg diet.
Where [9] appears, read: male rats, Diet 2, 1.0 mM/kg diet.
The mark [10] stands for this setting: male rats, Diet 3, 0.5 mM/kg diet.
The mark [11] stands for this setting: male rats, Diet 5, 0.10 mM/kg diet.

On to `CC(C)=CCC/C(C)=C/C=C/C(C)=C/C=C/C(C)=C/C=C/C=C(C)/C=C/C=C(C)/C=C/C1C(C(C)(C)O)CCC1(C)O` (stereo not drawn) [2,6 cyclolycopene-1,5-diol], for which the “Carotenoid content of diet” value was 2 μg/gm (ppm) in data set [1] (Diet 1, 2.5 mM/kg diet); 1.4 μg/gm (ppm) in data set [1] (Diet 2, 1.0 mM/kg diet); 0.76 μg/gm (ppm) in data set [1] (Diet 3, 0.5 mM/kg diet); 0.46 μg/gm (ppm) in data set [1] (Diet 4, 0.25 mM/kg diet); 0.14 μg/gm (ppm) in data set [1] (Diet 5, 0.10 mM/kg diet). For the same molecule, the “Carotenoid content of liver” value was 9 μg/gm (ppm) in data set [2] (setting [3]); 5 μg/gm (ppm) in data set [2] (setting [4]); 7 μg/gm (ppm) in data set [2] (setting [5]); 4 μg/gm (ppm) in data set [2] (setting [6]); 6 μg/gm (ppm) in data set [2] (setting [7]); 4 μg/gm (ppm) in data set [2] (setting [8]). The “Carotenoid content of liver” value is recorded as “.39 μg/gm (ppm)” in data set [2] (setting [9]); 4 μg/gm (ppm) in data set [2] (setting [10]); “.28 μg/gm (ppm)” in data set [2] (male rats, Diet 4, 0.25 mM/kg diet); “.34 μg/gm (ppm)” in data set [2] (setting [11]).

For `CC(C)=CCC/C(C)=C/CC/C(C)=C/CC/C(C)=C/C=C/C=C(\C)CC/C=C(\C)CC/C=C(\C)CCC=C(C)C` [Phytoene], the “Carotenoid content of diet” value in data set [1] (Diet 1, 2.5 mM/kg diet) is 70 μg/gm (ppm); in data set [1] (Diet 2, 1.0 mM/kg diet), 23 μg/gm (ppm); in data set [1] (Diet 3, 0.5 mM/kg diet) it was 0.32 μg/gm (ppm); in data set [1] (Diet 4, 0.25 mM/kg diet) it was 5 μg/gm (ppm); in data set [1] (Diet 5, 0.10 mM/kg diet), 1 μg/gm (ppm). For the same molecule, the “Carotenoid content of liver” value in data set [2] (setting [3]) is 66 μg/gm (ppm); in data set [2] (setting [4]), 35 μg/gm (ppm); in data set [2] (setting [5]), 40 μg/gm (ppm); in data set [2] (setting [6]), 46 μg/gm (ppm); in data set [2] (setting [7]), 38 μg/gm (ppm); in data set [2] (setting [8]) it was 23 μg/gm (ppm). Besides, the figures for the “Carotenoid content of liver” value in data set [2] (setting [9]), in data set [2] (setting [10]) and in data set [2] (setting [11]) were 4 μg/gm (ppm), 21 μg/gm (ppm) and 10 μg/gm (ppm), respectively.

As to `CC(C)=CCC/C(C)=C/CC/C(C)=C/C=C/C(C)=C/C=C/C=C(\C)CC/C=C(\C)CC/C=C(\C)CCC=C(C)C` [Phytofluene], the “Carotenoid content of diet” value in data set [1] (Diet 1, 2.5 mM/kg diet) was 58 μg/gm (ppm); in data set [1] (Diet 2, 1.0 mM/kg diet), 28 μg/gm (ppm); in data set [1] (Diet 3, 0.5 mM/kg diet), 14 μg/gm (ppm); in data set [1] (Diet 4, 0.25 mM/kg diet), 8 μg/gm (ppm); in data set [1] (Diet 5, 0.10 mM/kg diet), 2 μg/gm (ppm). The “Carotenoid content of liver” value in data set [2] (setting [3]) is on record as 106 μg/gm (ppm); in data set [2] (setting [4]) it was 48 μg/gm (ppm); in data set [2] (setting [5]), 50 μg/gm (ppm); in data set [2] (setting [6]), 46 μg/gm (ppm); in data set [2] (setting [7]), 33 μg/gm (ppm); in data set [2] (setting [8]) it was 30 μg/gm (ppm). The “Carotenoid content of liver” value in data set [2] (setting [9]) is 5 μg/gm (ppm); in data set [2] (setting [10]) it was 34 μg/gm (ppm); in data set [2] (setting [11]), 10 μg/gm (ppm).

On to `CC(C)=CCC/C(C)=C/CC/C(C)=C/C=C/C(C)=C/C=C/C=C(C)/C=C/C=C(\C)CC/C=C(\C)CCC=C(C)C` [zeta-carotene], for which the “Carotenoid content of diet” value is listed as 1 μg/gm (ppm) in data set [1] (Diet 1, 2.5 mM/kg diet); 9 μg/gm (ppm) in data set [1] (Diet 2, 1.0 mM/kg diet); 4 μg/gm (ppm) in data set [1] (Diet 3, 0.5 mM/kg diet); 2 μg/gm (ppm) in data set [1] (Diet 4, 0.25 mM/kg diet); 0 μg/gm (ppm) in data set [1] (Diet 5, 0.10 mM/kg diet).

Take `CC1=C(/C=C/C(C)=C/C=C/C(C)=C/C=C/C=C(C)/C=C/C=C(C)/C=C/C2=C(C)CCCC2(C)C)C(C)(C)CCC1` [β-carotene]: the “Carotenoid content of diet” value in data set [1] (Diet 1, 2.5 mM/kg diet) is reported as 284 μg/gm (ppm); in data set [1] (Diet 2, 1.0 mM/kg diet), 138 μg/gm (ppm); in data set [1] (Diet 3, 0.5 mM/kg diet), 69 μg/gm (ppm); in data set [1] (Diet 4, 0.25 mM/kg diet), 37 μg/gm (ppm); in data set [1] (Diet 5, 0.10 mM/kg diet), 8 μg/gm (ppm). The “decline of concentration from original values” in data set [1] (diets, 7 months storage) was determined as 10%.

For the origin of these results see patent publication US20040191297A1, “Carotenoid formulation” (priority 1997, published 2004).
